This note sets out measurements from ChEMBL document CHEMBL1687911, “Design, synthesis, and biological evaluation of novel carbohydrate-based sulfamates as carbonic anhydrase inhibitors” (J Med Chem, 2011).

In this assay the target is Carbonic anhydrase 9 (Homo sapiens, UniProt Q16790). In words: Inhibition of human carbonic anhydrase 9 catalytic domain by CO2 hydration assay.
Compound `CC(=O)O[C@@H]1O[C@H](COS(N)(=O)=O)[C@@H](OC(C)=O)[C@H](OC(C)=O)[C@H]1OC(C)=O` yielded a Ki of 73 nM.

`NS(=O)(=O)OC[C@H]1OC(O)[C@H](O)[C@@H](O)[C@@H]1O` (some centres not stated) had a Ki of 8.6 nM.

The compound `CC(=O)OC[C@H]1O[C@@H](S(N)(=O)=O)[C@H](OC(C)=O)[C@@H](OC(C)=O)[C@H]1OC(C)=O` had a Ki of 4150 nM.

On to `NS(=O)(=O)OC[C@H]1OC(O)[C@H](O)[C@@H](O)[C@H]1O` (some centres not stated), for which the Ki is 62 nM.

`CO[C@H]1O[C@H](COS(N)(=O)=O)[C@@H](OC(C)=O)[C@H](OC(C)=O)[C@H]1OC(C)=O` gave an inhibitory constant (Ki) of 8.4 nM.

The compound `CC(=O)OC[C@H]1O[C@@H](OC(C)=O)[C@H](OC(C)=O)[C@@H](OC(C)=O)[C@@H]1O[C@H]1O[C@H](COS(N)(=O)=O)[C@@H](OC(C)=O)[C@H](OC(C)=O)[C@H]1OC(C)=O` showed a Ki of 631 nM.

The compound `NS(=O)(=O)OC[C@H]1O[C@H](O[C@H]2[C@H](O)[C@@H](O)[C@H](O)O[C@@H]2CO)[C@H](O)[C@@H](O)[C@@H]1O` registered a Ki of 497 nM.

The compound `CC(=O)O[C@@H]1O[C@H](COS(N)(=O)=O)[C@H](OC(C)=O)[C@H](OC(C)=O)[C@H]1OC(C)=O` displayed a Ki of 75 nM.

`NS(=O)(=O)OC[C@H]1OC(O)[C@@H](O)[C@@H](O)[C@@H]1O` (some centres not stated) showed a Ki of 53 nM.

For the compound `CO[C@H]1O[C@H](COS(N)(=O)=O)[C@@H](O)[C@H](O)[C@H]1O`, affinity was put at a Ki of 9 nM.

On to `CCC(=O)O[C@@H]1O[C@H](COS(N)(=O)=O)[C@@H](OC(=O)CC)[C@H](OC(=O)CC)[C@H]1OC(=O)CC`, for which the Ki came out at 77 nM.

`CC(=O)O[C@@H]1O[C@H](COS(N)(=O)=O)[C@@H](OC(C)=O)[C@H](OC(C)=O)[C@@H]1OC(C)=O` gave a Ki of 7.8 nM.

As usually defined, the Ki is a dissociation constant, usually derived from enzyme kinetics or from competition with a known ligand.
